In paper PMC7797697 (Theranostics, 2021):

Tests used:
[1] = system: MDA-MB-231, T-47D, and primary breast tumor cells; experiment: Wound-healing assay; type: cell-based, human; details: compared with DMSO treatment, P < 0.05
Procedure: Tumor cell migration was determined by the wound healing assay. […] After treatment, a straight scratch was made onto the cell monolayer using a pipette tip. The cells were washed with PBS three times to remove the floating cells, and the cells were cultured in serum-free medium for 24 h. Cell wound edges were captured using a light microscope.

[2] = system: breast cancer cells; experiment: Transwell cell invasion assay; type: cell-based, human; details: matrigel transwell, P < 0.05
Procedure: Transwell chamber filters (BD) were coated with Matrigel diluted (1:10) in serum-free medium. […] After treatment, cells were digested and suspended in serum-free media. Cells (8,000 cells per well) were seeded into the upper chamber of the transwell chambers, and the chambers were transferred into 24-well plates containing 500 μl culture medium per well. After 20 h of incubation, cells in the upper chamber were fixed with 4% formaldehyde, washed with PBS, and stained with crystal violet for half an hour. Images of invasive cells were captured using a light microscope.

[3] = Pathological examination (H&E) of main organs; type: in vivo, nude mice; details: i.v., 50 mg/kg, every other day for four weeks
Procedure: MDA-MB-231 (5 × 10^6 cells) were inoculated into the left abdominal mammary fat pad of 6-week-old female nude mice, and tumor growth was monitored. […] After four weeks of treatment, all mice were sacrificed according to ethical guidelines. Tumors were excised and analyzed. Tumor volume was measured using a Vernier caliper and calculated according to the following formula: π/6 × length × width^2. All animal handling and procedures were approved by the Capital Medical University Institutional Animal Care. Tumor and adjacent tissues were rapidly fixed in 4% paraformaldehyde (Sigma-Aldrich) for at least 24 h and embedded in paraffin for microscopic examination. From the prepared paraffin blocks, 5-μm thick sections were cut and stained with hematoxylin and eosin (H&E) for light microscopic observation. Sections were processed as per standard protocols using 3,3'-diaminobenzidine (DAB) staining. All human and mouse tissues were collected according to protocols approved by the Ethics Committee of Capital Medical University, and informed consent was obtained from all patients.

[4] = system: histone deacetylase; experiment: Western blot of acetylated histone H3 and acetylated α-tubulin; type: cell-based, human; details: MDA-MB-231 cells, 100 or 200 nM, 24-72 h
Procedure: Total protein was assessed by sodium dodecyl sulfate-polyacrylamide gel electrophoresis using 10% or 15% gels, followed by immunoblotting with the following antibodies. Anti-glyceraldehyde 3-phosphate dehydrogenase (GAPDH) antibody (AC002) was purchased from ABclonal Technology (Woburn, MA, USA); anti-PLCβ3 antibody (14247) was purchased from Cell Signaling Technology (Danvers, MA, USA); anti-β-actin antibody (ab8226) and anti-histone H3 antibody (ab1791) were purchased from Abcam (Cambridge, UK); anti-ace tubulin antibody (66200-1-lg) was purchased from Proteintech Group (Rosemont, IL, USA); anti-γ-catenin antibody was purchased from BD Biosciences (Franklin Lakes, NJ, USA). The GAPDH and β-actin content were analyzed as the loading control.

[5] = system: primary breast cancer cells; experiment: Intracellular calcium measurement (Fluo-4-AM); type: cell-based, human; details: thrombin stimulation
Procedure: After treatment, the cells were digested and seeded in 96-well black plates (Corning Costar, Cambridge, MA, USA) and cultured for 20 h. For measurement of [Ca^2+]i, the cells were labeled with Fluo-4-AM in serum-free medium for half an hour at room temperature. After washing with Dulbecco's Phosphate Buffered Saline (D-PBS), cells were overlaid in Hank's balanced salt solution (5.4 mM KCl, 1 mM MgCl2, 20 mM hydroxyethyl piperazineethanesulfonic acid (HEPES), 120 mM NaCl, 10 mM glucose, 0.2 mM Ethylenebis(oxyethylenenitrilo)tetraacetic acid (EGTA)). Continuous fluorescence intensity was detected after thrombin was added as a calcium agonist by an automated sampler. Response over baseline was assessed as a relative measure of [Ca^2+]i.

[6] = system: Caco-2; experiment: CCK8 assay IC50; type: cell-based; details: Homo sapiens, Caco-2, colon cancer, 72 h
Procedure: (§1) Cell viability was then detected using a CCK8 assay (MedChemExpress, USA) according to the manufacturer's instructions.
(§2) Statistical analyses of all data were performed using GraphPad Prism (version 8.0, Graph Pad Software Inc., San Diego, CA, USA). All the data were analyzed by Student's t-test or one-way ANOVA. The Z-Score was chosen to evaluate the results and experimental deviation. Quantitative data are presented as the mean ± SD. The asterisk (*) denotes statistically significant difference (P < 0.05). IC50 was calculated using a four-parameter fit with variable slope in GraphPad Prism.

[7] = system: HCT-15; experiment: CCK8 assay IC50; type: cell-based; details: Homo sapiens, HCT-15, colon cancer, 72 h
Procedure: as §1, §2

[8] = system: A549; experiment: CCK8 assay IC50; type: cell-based; details: Homo sapiens, A549, lung cancer, 72 h
Procedure: as §1, §2

[9] = system: T-47D; experiment: CCK8 assay IC50; type: cell-based; details: Homo sapiens, T47D, breast cancer, 72 h
Procedure: as §1, §2

[10] = system: SMMC-7721; experiment: CCK8 assay IC50; type: cell-based; details: Homo sapiens, SMMC-7721, liver cancer, 72 h
Procedure: as §1, §2

[11] = system: PANC-1; experiment: CCK8 assay IC50; type: cell-based; details: Homo sapiens, PANC-1, pancreatic cancer, 72 h
Procedure: as §1, §2

[12] = system: HeLa; experiment: CCK8 assay IC50; type: cell-based; details: Homo sapiens, cervical cancer, 72 h
Procedure: as §1, §2

[13] = system: MCF-7; experiment: CCK8 assay IC50; type: cell-based; details: Homo sapiens, MCF7; MCF-7, 72 h, CCK8, value of the text
Procedure: as §1, §2

[14] = system: PC-3; experiment: CCK8 assay IC50; type: cell-based; details: Homo sapiens, PC-3, prostatic cancer, 72 h
Procedure: as §1, §2

[15] = system: SH-SY5Y; experiment: CCK8 assay IC50; type: cell-based; details: Homo sapiens, neuroblastoma, 72 h
Procedure: as §1, §2

[16] = system: MEF; experiment: CCK8 assay IC50; type: cell-based, mouse; details: Mus musculus, normal cells, 72 h
Text: HeLa, MCF-7 and MDA-MB-231 cell lines were purchased from the American Type Culture Collection. MCF-10A, T-47D, PANC-1, A549, HCT-15, Caco-2, SMMC-7721, SH-SY5Y, HUVEC and PC-3 cell lines were obtained from the Chinese Academy of Medical Sciences. MEF was isolated from pregnant mice at 14‒16 days of pregnancy. Primary breast cancer cells were isolated from breast cancer patients. All media including Dulbecco Modified Eagle Medium (DMEM), RPMI 1640 Medium and DMEM/Nutrient Mixture F-12 were supplemented with 10% fetal bovine serum (FBS), 100 units/mL penicillin, and […] streptomycin (Gibco, Waltham, MA, USA). Cells were cultured in a humidified incubator equilibrated with 5% CO2 at 37 °C. Cells were treated for 24-72 h in adherent conditions with compounds from an epigenetic small molecule inhibitor library (L1200, Topscience, Shanghai, China).
as §1
as §2, with “The asterisk (*) denotes statistically significant difference (P < 0.05).” left out

[17] = system: MDA-MB-231; experiment: CCK8 assay IC50; type: cell-based, human; details: Homo sapiens; MDA-MB-231, 72 h, CCK8, value of the text
Procedure: as §1, §2

[18] = system: HUVEC; experiment: CCK8 assay IC50; type: cell-based, human; details: 72 h, normal cells
Procedure: as §1, §2

[19] = system: non-breast cancer cell lines; experiment: CCK8 assay IC50, panel summary; type: cell-based; details: panel of non-breast cancer cell lines, 72 h
Procedure: as §1, §2

- IC50 [6]: 2 µM
- IC50 [7]: 33 µM
- IC50 [8]: 1.16 µM
- IC50 [9]: 2.63 µM
- IC50 [10]: 12 µM
- IC50 [11]: 3 µM
- IC50 [12]: 1.81 µM
- IC50 [13]: 0.896 µM
- IC50 [14]: 1.22 µM
- IC50 [15]: 6 µM
- IC50 [17]: 0.663 µM
- IC50 [19]: > 1 µM
Compound: CN(C)Cc1c(C(=O)NCCOc2ccc(C(=O)NO)cc2)oc2ccccc12 [PCI-24781]
- wound closure (cell migration) [1]: significant delay
- invasive capacity [2]: significant reduction in the invasive capacity
- histological changes in the main organs (heart, liver, lung, spleen, and kidney) [3]: did not exhibit serious histological changes
- acetylated histone H3 and acetylated α-tubulin levels [4]: time-dependent and dose-dependent accumulation of acetylated histone H3 (H3) and acetylated α-tubulin
- amplitude of [Ca^2+]i oscillations [5]: significant decrease in the amplitude
- IC50 [16]: 15 µM
- IC50 ([18]; Homo sapiens): 4.2 µM
- IC50 [18]: 4.17 µM
